≈ marks a conversion by molar mass, not a printed value.

As a reminder, the hepatocyte CLint is a measure of how fast metabolising enzymes remove a compound, apart from limits set by blood flow. A higher hepatocyte CLint goes with rapid turnover. For orientation: logD means the decadic logarithm of the distribution of all forms, ionised or not, between an organic phase and buffer at a given pH. The fraction unbound is the share of the substance not bound to proteins or other matrix. The low end stands for extensive binding, the high end for weak binding. By microsomal CLint is commonly meant a measure of how fast metabolising enzymes remove a compound, apart from limits set by blood flow. A lower microsomal CLint goes with slow turnover. For orientation: solubility (thermodynamic) means solubility found after equilibrating the solid with the medium.

Series [1] can be described thus: in vitro. As to conditions: human, hepatocytes.
The nature of series [2]: physchem. As to conditions: octan-1-ol/water.
Series [3] is described as follows: in vitro. As to conditions: human, plasma.
A short description of series [4]: in vitro. As to conditions: human.
Series [5] in a line: physchem. As to conditions: pH 7.4 buffer.
A short description of series [6]: in vitro. As to conditions: SD, HW or BN, rat, plasma.

In the series “in vitro [1]”, `Nc1ncc(-c2ccc(S(=O)(=O)N3CCCC3)cc2)nc1C(=O)Nc1cccnc1` registered a hepatocyte CLint of under 3 µL/min/1e6 cells.
The same measure, in the same setting: as for `CS(=O)(=O)C1(c2cc(N3CCOCC3)nc(-c3cccc4[nH]ncc34)n2)CC1`, the figure is under 3 µL/min/1e6 cells.
The compound `C[C@H]1COCCN1c1nc(N2CCOC[C@@H]2C)c2ccc(-c3cccc(C(=O)NCCO)c3)nc2n1` returned a logD in “physchem [2]” (pH 7.4, LogD7.4) of 2.49. The same compound showed a hepatocyte CLint in “in vitro [1]” of 10 µL/min/1e6 cells.
Taken in the same sequence, the figures for `CC(C)C[C@H](CO)Nc1nc(SCc2ccccc2)nc2[nH]c(=O)sc12` were 4.2 and 13.5 µL/min/1e6 cells.
Taken in the same sequence, the figures for `CC(C)C[C@H](CO)Nc1nc(SCc2ccccc2)nc2nc(N)sc12` were 4.2 and 20.4 µL/min/1e6 cells.
`CC[C@H](CO)Nc1nc(SCc2cccc(F)c2F)nc2nc(N)sc12`: the fraction unbound at 5 h in the series “in vitro [3]” (PPB) was 0.0149. In the series “in vitro [4]” (liver microsomes), this compound registered an intrinsic metabolic clearance (microsomal CLint) of 62 µL/min/mg. The compound also returned an intrinsic clearance (hepatocyte CLint) in “in vitro [1]” of 5.16 µL/min/1e6 cells.
In “physchem [2]” (pH 7.4, LogD7.4), `CC(C)(CO)Nc1nc(SCc2cccc(F)c2F)nc2nc(N)sc12` had a pH-dependent lipophilicity (logD) of 3.37. The intrinsic metabolic clearance (hepatocyte CLint) in the series “in vitro [1]” stood at 5.88 µL/min/1e6 cells.
In the series “physchem [5]”, `CNC(=O)c1ccccc1Nc1nc(Nc2ccc(N3CCOCC3)cc2OC)ncc1Cl` returned a thermodynamic solubility of 0.4 µM (≈ 0.188 µg/mL). In addition, the intrinsic clearance (hepatocyte CLint) in “in vitro [1]” was determined as 16.2 µL/min/1e6 cells.
For the compound `C[C@]12CC[C@H](O)CC1=CC[C@@H]1[C@@H]2CC[C@]2(C)C(c3cccnc3)=CC[C@@H]12` [ABIRATERONE], the hepatocyte CLint in “in vitro [1]” is 55 µL/min/1e6 cells.
On the same count and under the same terms, in the case of `Cc1c(N(C)C)c(=O)n(-c2ccccc2)n1C` [AMINOPYRINE] it was 3.47 µL/min/1e6 cells.
For the compound `COc1ccccc1OCCNCC(O)COc1cccc2[nH]c3ccccc3c12` (configuration not stated) [CARVEDILOL], the fraction unbound at 5 h in the series “in vitro [6]” was 0.0262. Also, the intrinsic metabolic clearance (microsomal CLint) in “in vitro [4]” (microsomes) came to 41.7 µL/min/mg. This compound gave a hepatocyte CLint in the series “in vitro [1]” of 26.3 µL/min/1e6 cells.
In the series “physchem [2]” (pH 7.4), `O=C1CN=C(c2ccccc2Cl)c2cc([N+](=O)[O-])ccc2N1` [CLONAZEPAM] returned a log distribution coefficient (logD) of 3.72. This compound also had a thermodynamic solubility in the series “physchem [5]” of 240 µM (≈ 75.7 µg/mL). Moreover, the intrinsic clearance (hepatocyte CLint) in “in vitro [1]” came to 3.72 µL/min/1e6 cells.
`N=C(N)N1CCc2ccccc2C1` [DEBRISOQUIN] yielded a log distribution coefficient (logD) in the series “physchem [2]” (pH 7.4, LogD7.4) of -1.01. In addition, the hepatocyte CLint in the series “in vitro [1]” is 3.98 µL/min/1e6 cells.
As for `CCC1(C2=NCCN2)Cc2ccccc2O1` (configuration not stated) [EFAROXAN], in “in vitro [6]”, the fraction unbound at 5 h is 0.76. In addition, the hepatocyte CLint in the series “in vitro [1]” is under 3 µL/min/1e6 cells.
In “in vitro [1]”, `O=C1Nc2ccc(Cl)cc2[C@@](C#CC2CC2)(C(F)(F)F)O1` [EFAVIRENZ] displayed a hepatocyte CLint of 8.51 µL/min/1e6 cells.
In turn, `Cn1cc(C2=C(c3cn(C4CCN(Cc5ccccn5)CC4)c4ccccc34)C(=O)NC2=O)c2ccccc21` [ENZASTAURIN] showed a thermodynamic solubility in the series “physchem [5]” of 0.8 µM (≈ 0.412 µg/mL). Further, in “in vitro [3]”, the fraction unbound at 5 h was 0.0017. This compound also came in with a hepatocyte CLint in “in vitro [1]” of 6 µL/min/1e6 cells.
For the compound `CCOc1ccc2nc3ccc(=O)cc-3oc2c1` [ETHOXYRESORUFIN], the hepatocyte CLint in the series “in vitro [1]” was over 150 µL/min/1e6 cells.
`CCC1=C(C)CN(C(=O)NCCc2ccc(S(=O)(=O)NC(=O)N[C@H]3CC[C@H](C)CC3)cc2)C1=O` [GLIMEPIRIDE] had a logD in “physchem [2]” (pH 7.4, LogD7.4) of 1.73. The intrinsic metabolic clearance (hepatocyte CLint) in “in vitro [1]” was 23.2 µL/min/1e6 cells.
For `N#Cc1ccc(C(c2ccc(C#N)cc2)n2cncn2)cc1` [LETROZOLE], in the series “physchem [2]” (pH 7.4, LogD7.4), the logD was determined as 1.7. The compound further showed an unbound share (fraction unbound) at 5 h in the series “in vitro [3]” (PPB) of 0.483. This compound came in with a hepatocyte CLint in “in vitro [1]” of under 3 µL/min/1e6 cells.
For `CC#C[C@]1(O)CC[C@H]2[C@@H]3CCC4=CC(=O)CCC4=C3[C@@H](c3ccc(N(C)C)cc3)C[C@@]21C` [MIFEPRISTONE], the thermodynamic solubility in the series “physchem [5]” is 1.9 µM (≈ 0.816 µg/mL). The compound also showed an unbound share (fraction unbound) at 5 h in the series “in vitro [3]” (PPB) of 0.0015. Besides, the microsomal CLint in the series “in vitro [4]” (liver microsomes) stood at 79 µL/min/mg. In addition, in the series “in vitro [1]”, the intrinsic metabolic clearance (hepatocyte CLint) came to 26.9 µL/min/1e6 cells.
As to `CC(C)c1cc(C(=O)N2Cc3ccc(CN4CCN(C)CC4)cc3C2)c(O)cc1O` [ONALESPIB], the pH-dependent lipophilicity (logD) in the series “physchem [2]” (pH 7.4, LogD7.4) came to 2.5. The compound further showed a thermodynamic solubility in “physchem [5]” of 93.3 µM (≈ 38.2 µg/mL). Besides, the intrinsic metabolic clearance (hepatocyte CLint) in “in vitro [1]” is 23.4 µL/min/1e6 cells.
In the case of `CNC(=O)c1ccc(C)c(-n2c(C)cc(OCc3ccc(F)cc3F)c(Br)c2=O)c1` [PH-797804], the log distribution coefficient (logD) in “physchem [2]” (pH 7.4, LogD7.4) amounted to 2.8. In the series “physchem [5]”, this compound displayed a solubility (thermodynamic) of 21.4 µM (≈ 10.2 µg/mL). The compound further showed an unbound share (fraction unbound) at 5 h in “in vitro [6]” of 0.0183. This compound also came in with an intrinsic metabolic clearance (hepatocyte CLint) in the series “in vitro [1]” of under 3 µL/min/1e6 cells.
In the series “in vitro [6]”, `CCCN1CCCC[C@H]1C(=O)Nc1c(C)cccc1C` [ROPIVACAINE] showed a fraction unbound at 5 h of 0.511. The compound also registered a hepatocyte CLint in “in vitro [1]” of 15.5 µL/min/1e6 cells.
As for `C[C@]12CC[C@H]3[C@@H](CCC4=CC(=O)CC[C@@]43C)[C@@H]1CC[C@@H]2O` [TESTOSTERONE], the intrinsic clearance (hepatocyte CLint) in “in vitro [1]” is over 150 µL/min/1e6 cells.
Take `O=c1ccc2ccc(O)cc2o1` [UMBELLIFERONE]: the intrinsic clearance (hepatocyte CLint) in the series “in vitro [1]” stood at 123 µL/min/1e6 cells.
Same read-out and setting: in the case of `CCCS(=O)(=O)Nc1ccc(F)c(C(=O)c2c[nH]c3ncc(-c4ccc(Cl)cc4)cc23)c1F` [VEMURAFENIB] it was 6.61 µL/min/1e6 cells.
Regarding `CC(c1cc2ccccc2s1)N(O)C(N)=O` (configuration not stated) [ZILEUTON], the logD in the series “physchem [2]” (pH 7.4, LogD7.4) was determined as 2.05. This compound also came in with a solubility (thermodynamic) in the series “physchem [5]” of 436 µM (≈ 103 µg/mL). The same compound yielded an intrinsic clearance (hepatocyte CLint) in the series “in vitro [1]” of 7.76 µL/min/1e6 cells.
Consider `Cc1cc(CC(=O)O)n(C)c1C(=O)c1ccc(Cl)cc1` [ZOMEPIRAC], for which the hepatocyte CLint in the series “in vitro [1]” is under 3 µL/min/1e6 cells.

The record behind these values is ChEMBL document CHEMBL3301361, “Experimental in vitro DMPK and physicochemical data on a set of publicly disclosed compounds”.
